# Reference: patent US20240279232A1, “USE OF SUBSTITUTED 5-(4-METHYL-6-PHENYL-4H-BENZO[F]IMIDAZO[1,5-A][1,4] DIAZEPIN-3-YL)-1,2,4-O[…] THE TREATMENT OF INFLAMMATORY CONDITIONS” (priority 2021, published 2024)
# How the values were obtained:
# [1] = test system: Swiss Webster mice; test: Formalin test; format: in vivo, mouse; conditions: orally; GL-IV-03 10 mg/kg; ketoprofen 30 mg/kg
# Method: Webster mice were treated orally four days in advance with indicated compounds and doses before the injection of 2% formalin in the right hind paw. Mice were evaluated during the first 5 min (phase 1) and after 20 minutes (phase 2) for 5 minutes in 5 seconds intervals Licking and biting the right hind paw during a 5 second interval was noted and combined as total time addressing the injected paw. Data is given as mean with SEM (n =8). ** indicate p<0.01 (unpaired t-test).
# The antinociceptive effect of GL-IV-03 was investigated with the formalin test. Paw injections of formalin elicited a biphasic pain response separated in time (1-5 minutes and 20-60 minutes). […] Sensorimotor impairment and sedation were investigated with mice that were trained to balance on a rotating rod over a period of three minutes (rotarod). The amount of time that mice remained balanced on the rod after intraperitoneal (i.p.) and oral (p.o.) treatment with GL-IV-03 and MP-IV-010 is summarized in FIG. 7B-7C. […] The effect was similar to non-steroidal anti-inflammatory drug ketoprofen at 30 mg/kg. Sedation and inhibition of sensorimotor coordination can influence licking and biting pain behaviors, prompting rotarod studies for GL-IV-03 and MP-IV-010. […] In contrast to diazepam, a benzodiazepine with high affinity for the α1β2/3γ2 and other GABAAR subtypes, was sedating at 5 mg/kg.
# Formalin test. […]
# [2] = target: T1, iNOS (Mus musculus, UniProt P29477); test: iNOS activity of extracts of activated microglia incubated with compound; format: biochemical; conditions: 50 μM, extracts incubated 2 h
# T1 construct: endogenous in cells
# Method: Cellular proteins were isolated from mouse microglia and mouse microglia activated for 24 hours with IFNγ/LPS. Cellular proteins from activated microglia were treated for 2 hours with 50 μM MP-IV-010 and iNOS activity was determined for all protein extracts with an Abcam INOS Activity Assay kit (n=3).
# Next, the possible involvement of INOS in MP-IV-010 (and structurally similar compound GL-IV-03) mediated reduction of NO in activated microglia was investigated. INOS activity was measured in activated microglia after a 24-hour treatment with MP-IV-010. Second, proteins were harvested from microglia activated for 24 hours with LPS/INFγ, followed by a 2-hour treatment with MP-IV-010 before measuring iNOS activity. Finally, mRNA and protein levels were quantified for GL-IV-03 treated activated microglia to examine the transcriptional regulation of iNOS.
# iNOS activity assay. Mouse microglia were activated with 50 ng/mL LPS (Invivogen, NC9836) and 150 U/mL IFNγ (R&D Systems, 485MI100), and treated with compounds of interest in 6 well plates for 2 or 24 hours. […] Protein was collected, quantified, and analyzed with the Nitric Oxide Synthase Activity kit (Abcam, ab211083) with minor alterations to the established protocol. […] Absorbance at 540 nm was measured using a TECAN Infinite M1000 plate reader. Significance (n=3) was analyzed by ANOVA.
# [3] = target: 5-HT1E (Homo sapiens, UniProt P28566); test: PDSP primary binding 5-HT1E; conditions: PDSP primary screening
# Method: (§1) Because reduction of NO could not be reversed by GABAAR antagonists, the possible binding of MP-IV-010 to other cellular receptors was evaluated in collaboration with the NIMH Psychoactive Drug Screening Program.
# (§2) Psychoactive Drug Screening Program. Detailed protocols for the primary and secondary radioligand binding assays can be found in the National Institute of Mental Health's Psychoactive Drug Screening Program (NIMH PDSP) Assay Protocol Book. Briefly, primary and secondary radioligand binding assays are carried out in a final of volume of 125 μL per well in appropriate binding buffer. The radioactive ligand concentration is close to the Kd. Total binding and nonspecific binding are determined in the absence and presence of 10 μM of appropriate reference compound, respectively. In brief, plates are usually incubated at room temperature and in the dark for 90 min. Reactions are stopped by vacuum filtration onto 0.3% polyethyleneimine (PEI) soaked 96-well filter mats using a 96-well Filtermate harvester, followed by three washes with cold PBS buffer. Scintillation cocktail is then melted onto the microwave-dried filters on a hot plate and radioactivity counted in a Microbeta counter. The data (n=6) were analyzed by nonlinear regression.
# [4] = target: 5-HT2A (Homo sapiens, UniProt P28223); test: PDSP primary binding 5-HT2A; conditions: PDSP primary screening
# Method: as §1, §2
# [5] = target: 5-HT2B (Homo sapiens, UniProt P41595); test: PDSP primary binding 5-HT2B; conditions: PDSP primary screening
# Method: as §1, §2
# [6] = target: 5-HT6 (Homo sapiens, UniProt P50406); test: PDSP primary binding 5-HT6; conditions: PDSP primary screening
# Method: as §1, §2
# [7] = target: D2 (Homo sapiens, UniProt P14416); test: PDSP primary binding D2; conditions: PDSP primary screening
# Method: as §1, §2
# [8] = target: D4 (Homo sapiens, UniProt P21917); test: PDSP primary binding D4; conditions: PDSP primary screening
# Method: as §1, §2
# [9] = target: D5 (Homo sapiens, UniProt P21918); test: PDSP primary binding D5; conditions: PDSP primary screening
# Method: as §1, §2
# [10] = target: SERT (Homo sapiens, UniProt P31645); test: PDSP primary binding SERT; conditions: PDSP primary screening
# Method: as §1, §2
# [11] = target: DAT (Homo sapiens, UniProt Q01959); test: PDSP primary binding DAT; conditions: PDSP primary screening
# Method: as §1, §2
# [12] = target: H4 (Homo sapiens, UniProt Q9H3N8); test: PDSP primary binding H4; conditions: PDSP primary screening
# Method: as §1, §2
# [13] = target: Beta2 (Homo sapiens, UniProt P07550); test: PDSP primary binding Beta2; conditions: PDSP primary screening
# Method: as §1, §2
# [14] = target: M1 (Homo sapiens, UniProt P11229); test: PDSP primary binding M1; conditions: PDSP primary screening
# Method: as §1, §2
# [15] = target: PBR (Rattus norvegicus, UniProt P16257); test: PDSP primary binding PBR; conditions: PDSP primary screening
# Method: as §1, §2
SMILES,"antinociceptive effect, formalin test (phase 1 and 2) [1]",iNOS activity of cellular extracts (direct inhibition) [2],Percent Competition 5-HT1E [3] [%],Percent Competition 5-HT2A [4] [%],Percent Competition 5-HT2B [5] [%],Percent Competition 5-HT6 [6] [%],Percent Competition D2 [7] [%],Percent Competition D4 [8] [%],Percent Competition D5 [9] [%],Percent Competition SERT [10] [%],Percent Competition DAT [11] [%],Percent Competition H4 [12] [%],Percent Competition Beta2 [13] [%],Percent Competition M1 [14] [%],Percent Competition PBR [15] [%]
"CCc1noc(-c2ncn3c2[C@@H](C)N=C(c2ccccc2F)c2cc(C4CC4)ccc2-3)n1 [GL-IV-03, (R)-5-(8-Cyclopropyl-6-(2-fluorophenyl)-4-methyl-4H-benzo[f]imidazo[1,5-a][1,4]diazepin-3-yl)-3-ethyl-1,2,4-oxadiazole]",antinociceptive effects in both acute pain (phase 1) and inflammation mediated pain (phase 2),,,,,,,,,,,,,,
"C#Cc1ccc2c(c1)C(c1ccccc1F)=N[C@H](C)c1c(-c3nc(C(C)C)no3)ncn1-2 [MP-IV-010, (R)-5-(8-ethynyl-6-(2-fluorophenyl)-4-methyl-4H-benzo[f]imidazo[1,5-a][1,4]diazepin-3-yl)-3-isopropyl-1,2,4-oxadiazole]",,did not differ from the vehicle treated cell extract,−7,−1,0,21,25,5,29,22,14,6,20,−11,28
